Earlier results in patent US9795593B2, “Use of 3-(3-[1,2,4]-triazolo)-oxatriazolium-5-olate for treating sexual disorders” (LIMITED LIABILITY COMPANY “KONSORTSIUM-PIK”, priority 2014, dated 2017).

What was measured:
[1] = 7-day-long administration of L-NAME; cited from earlier work
NO-synthase = settings: 7-day-long administration of L-NAME; cited from earlier work
[2] = test system: model of L-NAME-induced NO deficiency; settings: cited from earlier work
[3] = Nicorandil (4 mg/kg) preconditioning

COC(=O)[C@@H](N)CCCNC(=N)N[N+](=O)[O-].Cl [L-NAME, N-omega-nitro-L-arginine methyl ester hydrochloride]
increase of endothelial dysfunction ratio [1]: 5 fold | mean diastolic BP (NO-synthase): 146.0±4.2 mm Hg | mean systolic blood pressure (NO-synthase): 191.3±7.1 mm Hg

O=C(NCCO[N+](=O)[O-])c1cccnc1 [Nicorandil]
CRP [2, 3]: 0.6 ± 0.1 mg/dL | NO level [2, 3]: 6.2±0.25 mcmol/L | endothelial dysfunction ratio (EDR) [2, 3]: 1.76±0.18 AU | myocardium contractility during resistance testing [2, 3]: 77.2±8.3%

COc1ccc(Cl)cc1C(=O)NCCc1ccc(S(=O)(=O)NC(=O)NC2CCCCC2)cc1 [Glibenclamide]
effect on protective effects of preconditioning ([2]; Glibenclamide 4 mg/kg, blockade of ATP-dependent potassium channels): neutralized protective effects
